Broadly, the IC50 is the concentration needed to halve the response being measured.

The record followed here is US11597703B2, “Caspase inhibitors and methods of use thereof” (Histogen Inc., priority 2019, dated 2023).

Assay [1] relates to Jurkat cells. The experiment in a line: Prevention of Fas-induced apoptosis in Jurkat cells (WST-8). The format is cell-based. Particulars: Homo sapiens, 10 micromolar, read-out: % Prevention of Fas - induced Jurkat cell apoptosis at 10 micromolar. As to the method: Compounds of the present invention were evaluated in Jurkat cells, a human T-lymphocyte cell line, to evaluate compounds ability to inhibit apoptotic cell death. Jurkat cells, Clone E6-1 (ATCC TIB-152) were grown in culture maintain a cell density between 0.5-2 million cells/mL. Cells were tested for viability and countion with typan blue stain before use. Test compounds were addedd to 96 well plates and Jurkat cells were added at a concentration of approximately 100,000 cells per well and mixed thoroughly by action of pipetting. Plated cells were incubated for 1 hour at 37 degrees C. under an atmosphere of 5% CO2. Anti-Fas antibody was added and mixed by pipet action. Plates were incubated for 20 hours at 37 degrees C. under an atmosphere of 5% CO2. 10 microliters of thawed WST-8 solution was added to each well and incubated for 4 hours. Absorbance was measured at 450 nm and control reading at […] using a SpectraMax ID5 plate reader. Apoptotic cell death is executed by caspases 3, 7 and 6. Compounds that lack activity against these caspases will not prevent the death of Jurkat cells and is a functional test of selectivity for inflammatory over apoptotic caspases.
IC50 values to protect against Fas induced apoptosis and improve survival of Jurkat cells were determined from dose response studies.
For orientation: Tetrazolium dyes change colour on reduction, which living cells bring about.

For assay [2], the target named is T1, Caspase 7 (Homo sapiens, UniProt P55210).
T1 construct: purchased Enzo Biosciences
T1 sequence (P55210 24-198 limits assumed): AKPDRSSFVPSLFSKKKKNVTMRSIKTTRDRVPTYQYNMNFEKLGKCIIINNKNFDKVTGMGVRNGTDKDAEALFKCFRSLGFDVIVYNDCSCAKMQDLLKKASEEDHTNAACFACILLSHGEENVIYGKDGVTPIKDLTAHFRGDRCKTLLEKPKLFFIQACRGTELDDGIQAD
T1 sequence (P55210 207-303 limits assumed): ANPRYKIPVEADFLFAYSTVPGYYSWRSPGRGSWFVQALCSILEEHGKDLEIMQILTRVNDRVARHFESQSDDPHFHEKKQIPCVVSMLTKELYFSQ
The experiment in a line: Caspase 7 enzymatic inhibition assay, IC50. As to conditions: read-out: Caspase 7 enzyme inhibition IC50. It counts as biochemical. As to the method: (§1) Human caspases were purchased from Enzo Biosciences and used according to the manufacturer's instructions. An exemplary caspase assay, for Caspase-1, is provided below:
(§2) Enzymatic assays were conducted for Caspase-3, 6 and 7 activity according to the manufacture's instructions.

Assay [3] deals with T2, Caspase 6 (Homo sapiens, UniProt P55212).
T2 construct: purchased Enzo Biosciences
T2 sequence (P55212 24-179 limits assumed): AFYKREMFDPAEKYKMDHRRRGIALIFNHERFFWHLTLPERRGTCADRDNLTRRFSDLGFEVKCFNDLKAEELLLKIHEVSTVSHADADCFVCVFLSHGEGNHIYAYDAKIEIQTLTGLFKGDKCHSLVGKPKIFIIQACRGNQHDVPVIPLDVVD
T2 sequence (P55212 194-293 limits assumed): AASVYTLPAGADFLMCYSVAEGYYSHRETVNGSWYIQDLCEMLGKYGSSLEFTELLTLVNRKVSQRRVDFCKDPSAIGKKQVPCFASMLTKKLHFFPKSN
The assay can be described thus: Caspase 6 enzymatic inhibition assay, IC50. It counts as biochemical. Particulars: read-out: Caspase 6 enzyme inhibition IC50. As to the method: as §1, §2

In assay [4] the target is T3, Caspase-3 (Homo sapiens, UniProt P42574).
T3 construct: purchased Enzo Biosciences
T3 sequence (P42574 29-175 limits assumed): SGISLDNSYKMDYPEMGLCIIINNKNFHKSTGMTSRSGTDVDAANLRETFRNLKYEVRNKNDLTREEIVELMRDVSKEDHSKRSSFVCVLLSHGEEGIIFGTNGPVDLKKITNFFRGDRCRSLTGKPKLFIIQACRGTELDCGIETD
T3 sequence (P42574 176-277 limits assumed): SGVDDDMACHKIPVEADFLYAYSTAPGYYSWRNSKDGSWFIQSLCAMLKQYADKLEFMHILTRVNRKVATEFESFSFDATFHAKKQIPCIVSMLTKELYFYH
The experiment in a line: Caspase-3 enzymatic inhibition assay, IC50. The format is biochemical. As to conditions: read-out: Caspase 3 enzyme inhibition IC50. As to the method: as §1, §2

For assay [5], the target named is T4, Caspase-1 (Homo sapiens, UniProt P29466).
T4 construct: purchased Enzo Biosciences
T4 sequence (P29466 120-297 limits assumed): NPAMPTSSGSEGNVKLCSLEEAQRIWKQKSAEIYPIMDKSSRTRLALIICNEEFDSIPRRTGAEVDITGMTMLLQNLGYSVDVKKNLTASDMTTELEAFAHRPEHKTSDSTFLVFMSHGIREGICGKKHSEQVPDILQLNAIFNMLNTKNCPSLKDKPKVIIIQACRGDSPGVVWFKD
T4 sequence (P29466 317-404 limits assumed): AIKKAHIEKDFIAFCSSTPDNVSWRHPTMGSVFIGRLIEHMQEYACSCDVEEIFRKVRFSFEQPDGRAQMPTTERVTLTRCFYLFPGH
The experiment in a line: Caspase-1 enzyme inhibition assay (Ac-YVAD-pNA substrate), IC50. It counts as biochemical. As to the method:
as §1
Caspase-1 was diluted to 10 U/μl in assay buffer consisting of 50 mM HEPES, pH 7.4, 100 mM NaCl, 0.1% CHAPS, 1 mM EDTA, 10% glycerol and 10 mM DTT.
45 μl of assay buffer was added into ½ volume microtiter plate. The plate was allowed to equilibrate to assay temperature. 5 μl of Caspase-1 (10 U/μl) was added to each appropriate well. Two 2 blank wells containing assay buffer alone without Caspase-1 were included on the plate.
The reaction was started by the addition of 50 μl Ac-YVAD-pNA substrate, for a final substrate concentration of 200 μM. The reaction was continuously monitored at 405 nm. The data was graphed as OD405 nm vs time, and the slope was determined over the linear portion of the curve. The rates in OD/min were converted to substrate/min using an extinction coefficient for p-nitroaniline of 10,500M-1 cm-1, and were adjusted for pathlength of sample. […]

Assay [6] concerns IL-1β. The experiment in a line: Inhibition of LPS-stimulated IL-1β in THP-1 cells (ELISA). It counts as cell-based, human. Particulars: 10 micromolar; for inhibition at 10 µM: Homo sapiens, read-out: Percent Inhibition of IL1-β. As to the method: Compounds in the present invention were tested in THP-1 cells, a human monocyte cell line, to assess the inhibition of the inflammatory cytokine IL-1β. THP-1 cells (ATCC TIB-202) were grown in culture and seeded in 96 well plates at a concentration of 200,000 cells per well with a total volume of 150 μL. Plated cells were incubated overnight at 37 degrees C. under an atmosphere of 5% CO2. Media was removed from cells which were washed with PBS. Test compounds were diluted in DMSO stock solution and serially diluted appropriately for initial screening and IC50 determinations. LPS in serum free media (140 μL of […]) was added to each well to stimulate IL-1β production. IL-1β was measured by ELISA assay kit (R&D Systems) per the manufacturers instructions.
IC50 values for the inhibition of IL-1 in THP 1 cells were determined from dose response studies.

Regarding `C[C@H](NC(=O)C(=O)Nc1c(F)cccc1F)C(=O)N[C@@H](CCOC(=O)c1ccccc1)C(=O)COc1c(F)c(F)cc(F)c1F` [Example 8, (S)-3-((S)-2-(2-((2,6-Difluorophenyl)amino)-2-oxoacetamido)propanamido)-4-oxo-5-(2,3,5,6-tetrafluorophenoxy)pentyl benzoate], the results for the inhibition at 10 µM in assay [1] and in assay [6] were at most 10% and 25 to 50%, respectively. Besides, the IC50 is at least 1000 nM in assay [2], at least 1000 nM in assay [3], at least 1000 nM in assay [4] and 100 to 1000 nM in assay [5].
As to `C[C@H](NC(=O)C(=O)Nc1c(F)cccc1F)C(=O)N[C@@H](CCO)C(=O)COc1c(F)c(F)cc(F)c1F` [Example 2, N^1-(2,6-Difluorophenyl)-N^2—((S)-1-(((S)-5-hydroxy-2-oxo-1-(2,3,5,6-tetrafluorophenoxy)pentan-3-yl)amino)-1-oxopropan-2-yl)oxalamide], the inhibition at 10 µM is at most 10% in assay [1] and 50 to 90% in assay [6]. Moreover, the IC50 in assay [2] was at least 1000 nM; in assay [3] it was at least 1000 nM; in assay [4], at least 1000 nM; in assay [5], 10 to 100 nM.
Regarding `C[C@H](NC(=O)C(=O)Nc1c(F)cccc1F)C(=O)N[C@@H](CCOCc1ccsc1)C(=O)COc1c(F)c(F)cc(F)c1F` [Example 4, N^1-(2,6-difluorophenyl)-N^2—((S)-1-oxo-1-(((S)-2-oxo-1-(2,3,5,6-tetrafluorophenoxy)-5-(thiophen-3-ylmethoxy)pentan-3-yl)amino)propan-2-yl)oxalamide], the inhibition at 10 µM in assay [1] is at most 10%; in assay [6], 50 to 90%. Besides, the half-maximal inhibitory concentration (IC50) in assay [2] was at least 1000 nM; in assay [3] it was at least 1000 nM; in assay [4] it was at least 1000 nM; in assay [5] it was 10 to 100 nM.
In the case of `C[C@H](NC(=O)C(=O)Nc1c(F)cccc1F)C(=O)N[C@@H](CCC(=O)O)C(=O)COc1ccnc(C(F)(F)F)n1` [Example 15, (S)-4-((S)-2-(2-((2,6-Difluorophenyl)amino)-2-oxoacetamido)propanamido)-5-oxo-6-((2-(trifluoromethyl)pyrimidin-4-yl)oxy)hexanoic acid], the inhibition at 10 µM is at most 10% in assay [1] and above 90% in assay [6]. Also, the IC50 in assay [2] is at least 1000 nM; in assay [3], at least 1000 nM; in assay [4] it was at least 1000 nM; in assay [5], at most 10 nM.
Consider `C[C@H](NC(=O)C(=O)Nc1ccc(F)cc1)C(=O)N[C@@H](CCC(=O)O)C(=O)COc1c(F)c(F)cc(F)c1F` [Example 17, (S)-4-((S)-2-(2-((4-fluorophenyl)amino)-2-oxoacetamido)propanamido)-5-oxo-6-(2,3,5,6-tetrafluorophenoxy)hexanoic acid], for which the results for the inhibition at 10 µM in assay [1] and in assay [6] were at most 10% and above 90%, respectively. For the same compound, the IC50 is at least 1000 nM in assay [2], at least 1000 nM in assay [3], at least 1000 nM in assay [4] and at most 10 nM in assay [5].
Consider `C[C@H](NC(=O)C(=O)Nc1c(F)cccc1F)C(=O)N[C@@H](CC(=O)O)C(=O)COc1c(F)c(F)cc(F)c1F` [IDN-7314, reference compound], for which the “Percent Inhibition of IL1-β” value in assay [6] was “A (A > 90%)”.
Regarding `COc1ccc(NC(=O)C(=O)N[C@@H](C)C(=O)N[C@@H](CCC(=O)O)C(=O)COc2c(F)c(F)cc(F)c2F)cc1` [Example 24, (S)-4-((S)-2-(2-((4-methyoxyphenyl)amino)-2-oxoacetamido)propanamido)-5-oxo-6-(2,3,5,6-tetrafluorophenoxy)hexanoic acid], the concentration for half-maximal inhibition (IC50) was at least 1000 nM in assay [2], at least 1000 nM in assay [3], at least 1000 nM in assay [4] and at most 10 nM in assay [5].
On to `C[C@H](NC(=O)C(=O)Nc1ccccn1)C(=O)N[C@@H](CCC(=O)O)C(=O)COc1c(F)c(F)cc(F)c1F` [Example 39, (S)-5-oxo-4-((S)-2-(2-oxo-2-(pyridin-2-ylamino)acetamido)propanamido)-6-(2,3,5,6-tetrafluorophenoxy)hexanoic acid], for which the concentration for half-maximal inhibition (IC50) in assay [2] was at least 1000 nM; in assay [3], at least 1000 nM; in assay [4] it was at least 1000 nM; in assay [5] it was at most 10 nM.
For `C[C@H](NC(=O)C(=O)Nc1cccnc1)C(=O)N[C@@H](CCC(=O)O)C(=O)COc1c(F)c(F)cc(F)c1F` [Example 40, (S)-5-oxo-4-((S)-2-(2-oxo-2-(pyridin-3-ylamino)acetamido)propanamido)-6-(2,3,5,6-tetrafluorophenoxy)hexanoic acid], the concentration for half-maximal inhibition (IC50) in assay [2] was at least 1000 nM; in assay [3] it was at least 1000 nM; in assay [4], at least 1000 nM; in assay [5] it was at most 10 nM.
As to `CC(=O)c1ccc(NC(=O)C(=O)N[C@@H](C)C(=O)N[C@@H](CCC(=O)O)C(=O)COc2c(F)c(F)cc(F)c2F)cc1` [Example 30, (S)-4-((S)-2-(2-((4-acetylphenyl)amino)-2-oxoacetamido)propanamido)-5-oxo-6-(2,3,5,6-tetrafluorophenoxy)hexanoic acid], the half-maximal inhibitory concentration (IC50) in assay [2] was at least 1000 nM; in assay [3] it was at least 1000 nM; in assay [4] it was at least 1000 nM; in assay [5], at most 10 nM.
Turning to `C[C@H](NC(=O)C(=O)Nc1ccccc1C#N)C(=O)N[C@@H](CCC(=O)O)C(=O)COc1c(F)c(F)cc(F)c1F` [Example 32, (S)-4-((S)-2-(2-((2-cyanophenyl)amino)-2-oxoacetamido)propanamido)-5-oxo-6-(2,3,5,6-tetrafluorophenoxy)hexanoic acid], the IC50 is at least 1000 nM in assay [2], at least 1000 nM in assay [3], at least 1000 nM in assay [4] and at most 10 nM in assay [5].
As for `Cc1cc(C)nc(NC(=O)C(=O)N[C@@H](C)C(=O)N[C@@H](CCC(=O)O)C(=O)COc2c(F)c(F)cc(F)c2F)n1` [Example 41, (S)-4-((S)-2-(2-((4,6-dimethylpyrimidin-2-yl)amino)-2-oxoacetamido)propanamido)-5-oxo-6-(2,3,5,6-tetrafluorophenoxy)hexanoic acid], the 50% inhibitory concentration (IC50) in assay [2] is at least 1000 nM; in assay [3], at least 1000 nM; in assay [4] it was at least 1000 nM; in assay [5], at most 10 nM.
